In brackets after ≈: the same amount, converted by molar mass. Read-outs that look alike come from different tables or passages of the source.
What was measured:
Assay type in all cases: cell-based, Propionibacterium acnes
[1] = tested on: HL053PA1 strain (RT4) and HL043PA1 strain (RT5) versus HL110PA3 strain (RT6); assay: Strain-selective antibacterial activity (average of MICRT6/MICRT4 and MICRT6/MICRT5); settings: for Strain-selective antibacterial activity over the tested pH range, in words: tested pH range pH 5 to 7
Excerpt: (§1) Herein, “acne strain-selective antibacterial activity” or “strain-selective antibacterial activity” means an index indicating better inhibition of growth of a dominant strain in acne patients compared to that of a dominant strain in healthy subjects. It is expressed by the average value of the values (MICRT6/MICRT4, and MICRT6/MICRTS) obtained by dividing the minimum inhibitory concentration (MIC) of an object substance with respect to the dominant strain in healthy subjects (RT6 strain) (MICRT6) respectively by the MIC of the object substance with respect to the dominant strain in acne patients (RT4 strain) (MICRT4), and by the MIC of the object substance with respect to the dominant strain in acne patients (RT5 strain) (MICRT5).
(§2) The strain-selective antibacterial activity of each test substance (Table 2, right-most column) was evaluated based on the following rating criteria (Table 3). When the strain-selective antibacterial activity is indicated by a numerical range, the rating was based on the minimum value thereof.

HL043PA2 strain (RT5) = assay: MIC by broth microdilution method, HL043PA2 strain; settings: Cutibacterium acnes; Example 6, method as Example 1; read-out: MIC against acne bacterium strain HL043 PA2 strain (RT5)
Experimental: (§3) The antibacterial activity of a test substance was determined based on the minimum inhibitory concentration (MIC). An MIC was measured according to the broth microdilution method which is the standard method of Japanese Society of Chemotherapy.
(§4) Each of strain suspensions (5.0×10^4 cfu/mL) was aliquoted in a 96-well round bottom microplate, each of the test substance (fatty acid concentration 10,000 μg/mL) was added at a 1/10 volume to the aliquot and mixed to prepare measurement samples (fatty acid concentration: 1,000 μg/mL). Measurement samples in 2-fold dilution series were prepared using the strain suspension (fatty acid concentration from 0.48 to 1,000 μg/mL). Using a sample containing only the solvent (DMSO) as a control, it was confirmed that the influence of the solvent on the growth of each strain could be neglected.
(§5) The measurement samples were incubated under an anaerobic condition at 37° C. for 2 days. The presence or absence of a precipitation of test microbial cells after the incubation was examined and the minimum concentration at which the precipitation of microbial cells […] was regarded as the MIC (μg/mL) of the test substance against the acne bacterium strain.
(§6) The MIC of each of the following test substances was measured substantially in the same manner as in Example 1 (Table 12) except that a suspension of test bacterium strains was prepared using the dominant strain in acne patients (HL005PA1 strain (HM-492^†, RT4 strain), […] (HM-524^†, RT4 strain), HL045PA1 strain (HM-516^†, RT4 strain), or HL043PA2 strain (HM-514^†, RT5 strain)), or the dominant strain in healthy subjects (HL110PA4 strain (HM-555^†, RT6 strain) instead of the dominant strains in acne patients (HL053PA1 strain (RT4 strain) and HL043PA1 strain (RT5 strain)) and the dominant strain in healthy subjects (HL110PA3 strain (RT6 strain) used in Examples 1 to 3.

HL043PA1 strain (RT5) = assay: MIC by broth microdilution method, HL043PA1 strain; settings: for MIC: Cutibacterium acnes, read-out: MIC against acne bacterium strain HL043PA1 strain (RT5)
Experimental: An MIC is measured herein according to the broth microdilution method which is the standard method of Japanese Society of Chemotherapy.
as §3
One-loopful of each acne bacterium strain listed in Table 1 was scraped off and inoculated into 5 mL of a GAM broth slant agar medium (pH 7.0, Nissui Pharmaceutical Co., Ltd.).
The inoculated acne bacterium strain was precultured at 37° C. in a nitrogen atmosphere (anaerobic condition) for 48 hours. […]
Each fatty acid (Tokyo Chemical Industry Co., Ltd.) listed in Table 2 was dissolved in dimethylsulfoxide (DMSO) as a solvent such that the concentration became 10,000 μg/mL, and used as a test substance.
as §4, with “μg/mL).” for “μg/mL). Using a sample containing only the solvent (DMSO) as a control, it was confirmed that the influence of the solvent on the growth of each strain could be neglected.”
as §5

HL045PA1 strain (RT4) = assay: MIC by broth microdilution method, HL045PA1 strain; settings: Cutibacterium acnes, PA1; Example 6, method as Example 1; read-out: MIC against acne bacterium strain HL045 PA1 strain (RT4)
Experimental: as §3, §4, §5, §6

HL110PA4 strain (RT6) = assay: MIC by broth microdilution method, HL110PA4 strain; settings: Cutibacterium acnes; Example 6, method as Example 1; read-out: MIC against acne bacterium strain HL110 PA4 strain (RT6)
Experimental: as §3, §4, §5, §6

HL005PA1 strain (RT4) = assay: MIC by broth microdilution method, HL005PA1 strain; settings: Cutibacterium acnes, PA1; Example 6, method as Example 1; read-out: MIC against acne bacterium strain HL005 PA1 strain (RT4)
Experimental: as §3, §4, §5, §6

[2] = tested on: HL005PA1, HL056PA1, HL045PA1 (RT4) and HL043PA2 (RT5) strains versus HL110PA4 strain (RT6); assay: Strain-selective antibacterial activity against different acne bacterium strains (Example 6); settings: Example 6 strains
Excerpt: as §1, §2, §6

[3] = 48 h, pH 6.0 modified GAM broth, anaerobic, 37° C., 2 days (Example 1)
[4] = 72 h, pH 5.0, estimated from the growth on day 3
[5] = pH 5.0, estimated from the growth on day 3

SMILES	Strain-selective antibacterial activity ([1]; pH 5.5)	Strain-selective antibacterial activity at each pH ([1]; pH 5.5 (summary Table 10))	Strain-selective antibacterial activity ([1]; pH 6.0 (Example 1))	Strain-selective antibacterial activity at each pH ([1]; pH 6 (summary Table 10))	Strain-selective antibacterial activity ([1]; pH 6.5)	Strain-selective antibacterial activity at each pH ([1]; pH 6.5 (summary Table 10))	Strain-selective antibacterial activity ([1]; pH 7.0)	Strain-selective antibacterial activity at each pH ([1]; pH 7 (summary Table 10))	MIC (HL043PA2 strain (RT5)) [µg/mL]	MIC (HL043PA1 strain (RT5); [3]) [µg/mL]	MIC (HL043PA1 strain (RT5); [4]) [µg/mL]	MIC (HL043PA1 strain (RT5); pH 5.5) [µg/mL]	MIC (HL043PA1 strain (RT5); pH 6.5) [µg/mL]	MIC (HL043PA1 strain (RT5); pH 7.0) [µg/mL]	MIC against acne bacterium strain HL043PA1 strain (RT5) (HL043PA1 strain (RT5); [5]) [µg/mL]	MIC (HL045PA1 strain (RT4)) [µg/mL]	MIC (HL110PA4 strain (RT6)) [µg/mL]	MIC (HL005PA1 strain (RT4)) [µg/mL]	Strain-selective antibacterial activity [2]	Strain-selective antibacterial activity ([1]; pH 5.0)	further results
CCCCCCCCCCCCCCCC(=O)O [Palmitic acid (C16:0), Palmitic acid]	>16	>16	>130	>130	>130	>130	40	40	62.5 (≈ 244 µM)	7.81 (≈ 30.5 µM)	> 1000	62.5 (≈ 244 µM)	3.9 (≈ 15.2 µM)	15.6 (≈ 60.8 µM)	>1000	250 (≈ 975 µM)	> 1000	62.5 (≈ 244 µM)	>9.5	–	–
CCCCCCCCCCCCCCC(=O)O [Pentadecanoic acid (C15:0), Pentadecanoic acid]	>260	>260	130	130	>96	>96	260	260	3.9 (≈ 16.1 µM)	1.95 (≈ 8.04 µM)	15.6 (≈ 64.4 µM)	3.9 (≈ 16.1 µM)	1.95 (≈ 8.04 µM)	3.9 (≈ 16.1 µM)	–	3.9 (≈ 16.1 µM)	250 (≈ 1030 µM)	3.9 (≈ 16.1 µM)	64	>96	Strain-selective antibacterial activity at each pH ([1]; pH 5 (summary Table 10)): >96; Strain-selective antibacterial activity over the tested pH range, in words [1]: maintained a high strain-selective antibacterial activity over the entire pH range tested (pH 5 to 7)
CCCCCCCCCCCCCC(=O)O [Myristic acid (C14:0), Myristic acid]	>64	>64	16	16	>5.0	>5.0	2.0	2.0	15.6 (≈ 68.3 µM)	15.6 (≈ 68.3 µM)	31.3 (≈ 137 µM)	15.6 (≈ 68.3 µM)	31.3 (≈ 137 µM)	250 (≈ 1090 µM)	–	31.3 (≈ 137 µM)	250 (≈ 1090 µM)	31.3 (≈ 137 µM)	8.5	>48	Strain-selective antibacterial activity at each pH ([1]; pH 5 (summary Table 10)): >48
CCCCCCCCCCCCCCCCC(=O)O [Heptadecanoic acid (C17:0), Heptadecanoic acid]	>64	>64	>130	>130	>140	>140	72	72	62.5 (≈ 231 µM)	7.81 (≈ 28.9 µM)	> 1000	15.6 (≈ 57.7 µM)	3.9 (≈ 14.4 µM)	7.8 (≈ 28.8 µM)	>1000	125 (≈ 462 µM)	> 1000	62.5 (≈ 231 µM)	>11	–	Strain-selective antibacterial activity over the tested pH range, in words [1]: maintained a high strain-selective antibacterial activity between pH 5.5 and pH 7

Reference: patent US20190247353A1, “ACNE STRAIN-SELECTIVE ANTIBACTERIAL AGENT” (MOMOTANI JUNTENKAN CO., LTD., priority 2016, published 2019)
